Experimental data published in US20060167075A1, “Modulators of FAAH” (priority 2005, published 2006).

Experiments:
FAAH [1] = target: T1, FAAH (Rattus norvegicus, UniProt P97612); assay: FAAH activity in rat brain membrane (RBM) homogenate, 3H-anandamide hydrolysis; type: biochemical; conditions: 10 min at 37° C., pH 6.5
T1 construct: FAAH activity was assayed in the respective homogenates (Rat brain or Human brain); from tissue; host or cells: rat brain membrane homogenate (Charles River CD strain)
T1 sequence (P97612 1-579): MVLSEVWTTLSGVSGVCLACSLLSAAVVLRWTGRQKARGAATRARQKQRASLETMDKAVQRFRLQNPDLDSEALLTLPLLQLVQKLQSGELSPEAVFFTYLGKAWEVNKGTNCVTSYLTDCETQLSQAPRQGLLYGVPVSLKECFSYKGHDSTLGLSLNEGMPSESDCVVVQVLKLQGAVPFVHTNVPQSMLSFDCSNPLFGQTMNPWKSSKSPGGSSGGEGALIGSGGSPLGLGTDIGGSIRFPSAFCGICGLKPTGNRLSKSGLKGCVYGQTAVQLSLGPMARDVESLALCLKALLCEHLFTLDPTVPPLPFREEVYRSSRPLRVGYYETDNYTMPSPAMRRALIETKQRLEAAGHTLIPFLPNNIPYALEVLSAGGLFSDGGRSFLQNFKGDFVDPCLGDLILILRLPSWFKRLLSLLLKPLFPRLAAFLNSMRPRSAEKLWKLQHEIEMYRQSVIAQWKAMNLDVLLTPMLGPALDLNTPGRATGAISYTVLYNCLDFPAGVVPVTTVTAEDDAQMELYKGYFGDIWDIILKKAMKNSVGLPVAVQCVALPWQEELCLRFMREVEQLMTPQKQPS
Description: (§1) To assess FAAH inhibition, compounds were tested in an assay using rat brain microsomes and an assay using human brain microsomes using the methods described below.
Nine adult rats (Charles River CD strain, female, 200 g) were anaesthetized with isofluorane and rapidly decapitated. Each brain was quickly removed and chilled in tubes (3 brains per tube) on ice. Total wet weight of the 9 brains was ˜18 g. 25 mL of homogenization buffer (20 mM HEPES buffer, pH 7.0, with 1 mM MgCl2) was added to each tube. The brains were homogenized on ice for 1 minute using an Omni GLH homogenizer (Omni International, Marietta, Ga.). The homogenates were transferred to three centrifuge tubes and centrifuged at 36,500 g for 20 minutes at 4° C. The supernatant was discarded and each pellet was re-suspended in 25 ml homogenization buffer. The resuspended material was again centrifuged (36,500g, 20 min at 4° C.). The pellets were combined by resuspension in 10 mL of homogenization buffer and incubated in a 37° C. water bath for 15 min. The tube was then placed on ice for 5 min followed by centrifugation at 36,500 g for 20 minutes at 4° C. The supernatant was discarded and the membrane pellet was then resuspended in 40 mL of resuspension buffer (50 mM Tris-HCl buffer, pH 7.4, containing 1 mM EDTA and 3 mM MgCl2). A Bradford Protein assay was performed to determine protein concentration. […]
(§2) Samples were placed on ice to terminate the reactions. […] Radioactivity (corresponding to FAAH-catalyzed breakdown of ^3H-anandamide) found in aliquots (0.2 ml) of the aqueous phase was determined by liquid scintillation counting with quench correction.
(§3) The method of Wilson et al. was modified by acidifying the reaction mixtures by the addition of 10 μl of sodium phosphate solution [0.5M (pH 2.0)] after reactions were incubated at 37° C. for 10 min and chilled on ice. […] The columns were centrifuged and the eluate was counted as described by Wilson et al.

FAAH [2] = target: T2, FAAH (Homo sapiens, UniProt O00519); assay: FAAH activity in human brain membrane (HBM) homogenate, 3H-anandamide hydrolysis; type: biochemical; conditions: 10 min at 37° C., pH 6.5
T2 construct: FAAH activity was assayed in the respective homogenates (Rat brain or Human brain); tissue Analytical Biological Services (ABS), Inc; host or cells: human brain cortex membrane homogenate, pooled from three donors
T2 sequence (O00519 1-579): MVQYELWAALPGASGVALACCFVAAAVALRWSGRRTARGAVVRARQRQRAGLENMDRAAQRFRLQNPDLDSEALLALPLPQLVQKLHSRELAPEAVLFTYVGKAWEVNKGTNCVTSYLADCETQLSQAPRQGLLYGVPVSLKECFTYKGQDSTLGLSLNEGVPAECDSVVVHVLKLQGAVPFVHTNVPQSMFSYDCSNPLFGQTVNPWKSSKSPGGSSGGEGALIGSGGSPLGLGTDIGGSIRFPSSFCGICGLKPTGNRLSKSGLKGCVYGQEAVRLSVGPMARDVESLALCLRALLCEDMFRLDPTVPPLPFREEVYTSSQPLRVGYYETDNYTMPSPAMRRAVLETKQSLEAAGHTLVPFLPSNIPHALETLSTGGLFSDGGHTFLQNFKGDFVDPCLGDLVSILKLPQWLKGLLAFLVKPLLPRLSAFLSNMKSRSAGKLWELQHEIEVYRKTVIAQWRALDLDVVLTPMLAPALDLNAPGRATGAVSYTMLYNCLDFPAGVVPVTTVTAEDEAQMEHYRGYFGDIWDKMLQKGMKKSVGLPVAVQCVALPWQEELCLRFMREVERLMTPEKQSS
Description: as §1
10 g of normal human brain cortex tissue pooled from three donors was purchased from Analytical Biological Services (ABS), Inc. (Wilmington, Del.). The tissue had been collected by ABS, Inc. ˜4 hrs post mortem and was flash frozen and stored at −80° C. The brain tissue was thawed and transferred to a large ceramic mortar on ice. 50 mL of ice-cold homogenization buffer (20 mM HEPES buffer, pH 7.0, with 1 mM MgCl2) was added to the mortar and the tissue was homogenized with a pestle. The homogenate was centrifuged at 36,500 g for 20 minutes at 4° C. The supernatants were discarded and the pellets re-suspended in homogenization buffer and centrifuged as before. The supernatants were again discarded and the pellets were re-suspended in 30 ml homogenization buffer and incubated in a 37° C. water bath for 20 min. The homogenate was then centrifuged as before. The supernatant was discarded and the membrane pellets were re-suspended in 30 ml resuspension buffer (50 mM Tris-HCl buffer, pH 7.4, containing 1 mM EDTA and 3 mM MgCl2). A Bradford Protein assay was performed to determine protein concentration. The protein suspension was aliquotted into screw cap Cryo tubes each containing ˜200 μL of suspension, flash frozen in liquid nitrogen and stored at −80° C. until used for the assay.
as §2, §3

IC50 (FAAH [1]) [µM]	IC50 (FAAH [2]) [µM]	Compound
167	–	Cc1ccc(-c2cc(C(F)(F)F)nn2-c2ccc(S(N)(=O)=O)cc2)cc1 [Celecoxib, 4-[[5-(p-tolyl)-3-(trifluoromethyl)-1H-pyrazol-1-yl]]benzenesulfonamide]
–	96	COc1ccc2c(c1)c(CC(=O)O)c(C)n2C(=O)c1ccc(Cl)cc1 [Indomethacin]
452	198	CS(=O)(=O)c1ccc(C2=C(c3ccccc3)C(=O)OC2)cc1 [Rofecoxib]
280	41	Cc1onc(-c2ccccc2)c1-c1ccc(S(N)(=O)=O)cc1 [Valdecoxib, 4-(5-methyl-3-phenyl-isoxazol-4-yl)benzenesulfonamide]
